{"source": "paper PMC6304418", "about": "“A Novel Compound Targeting Protease Receptor 1 Activators for the Treatment of Glioblastoma” (Frontiers in Neurology, 2018)", "key": {"[1]": {"system": "human normal pooled citrated plasma", "assay": "Coagulation in plasma (PT, aPTT, TT)", "experimental": "HemosIL normal control (Instrumentation Laboratory), was used as human normal pooled citrated plasma from healthy donors. The lyophilized human plasma containing buffer, stabilizers and preservatives, was reconstituted using standard laboratory methods. The plasma was exposed in-vitro to indicated concentrations of SIXAC for 10 min. Next, prothrombin time (PT), activated partial thromboplastin time (aPTT) and thrombin time (TT) were measured. All tests were carried out with an ACLTOP® 500 autoanalyzerat in the Sheba medical center (Israel) MegaLab according to standard operating procedures (SOP). The results represent an average of 5 measures."}, "[2]": {"system": "CNS-1 glioma in Lewis rats", "assay": "In-vivo imaging study (MRI) in CNS-1 GBM rat model", "experimental": "(§1) Adult Lewis rats (270–335 g, Harlan, Jerusalem, Israel) were housed in a standard conditions and fed a standard diet. Water was available ad libitum. Ambient temperature was set to 22°C to 23°C with day/night light control. The protocols of this study were approved by the Sheba Medical Center Committee on the Use and Care of Animals (permit No: 972/15) according to the ARRIVE Guidelines. Maximum efforts were made in order to minimize suffering and pain. The humane endpoints were the inability to rise or ambulate and a severe weight loss (20% of initial body weight).\n(§2) The rats were anesthetized via IM injection of Ketamine-Xylazine (100 mg/kg, 16 mg/kg, respectively). A midline scalp incision was made, and a 1 mm burr hole was drilled (coordinates 1 mm lateral × 3 mm posterior to the Bregma). Tumor implantation was performed using a 30 gauge needle attached to a 25 μl syringe containing 10 μl of CNS-1 pellet 5 × 10^7cells/ml. The rats were positioned into a stereotactic frame in order to inject the cells at the right corpus striatum 5.5 mm deep in the brain tissue. […] The needle was gently pulled out 1 min after the pump was stopped. The burr hole was then sealed with bone wax and the skin was sutured.\nMRI was performed using a clinical interventional 1.5T MR system. The rats were anesthetized and Gd-based contrast agent was injected IP (Gd-DOTA, 0.02 mmol/kg, Dotarem, Guerbert). MRI sequences included contrast enhanced T1-weighted MRI for depiction of the tumor, T2-weighted MRI for depiction of edema and gradient-echo MRI for depiction of possible hemorrhages. The first MRI scan was used to rank the tumors into three categories based on the size evaluation in order to form groups with a similar distribution of initial tumor size. Regions of interest (ROIs) were plotted over enhanced T1 and T2 weighted MR images. The volume of the tumors, calculated from the T1-weighted images, was then subtracted from the enhancing volume, calculated from the T2-weighted images, in order to determine the volume of surrounding edema.\nThe animals were implanted with osmotic pumps attached to brain infusion tube (Alzet, Cupertino, CA, USA). Implantation was performed 5 days after tumor inoculation. […]\nRats were allocated to three groups. […] 7 days following induction of treatment (day 12) a follow-up MRI imaging (2nd) was performed and the size of the tumor and edema surrounding the tumor were analyzed by standard ROI manual techniques as described above. In order to eliminate the effect of initial tumor and edema sizes variance, the tumor and edema sizes increase were calculated by using the ratio of the 2nd MRI scan divided by the 1st MRI scan ([41], [42])."}, "[3]": {"system": "CNS-1 colonies", "assay": "Colony formation assay", "assay_type": "cell-based, rat", "settings": "SIXAC 1 μM, 5 days; colonies > 1 mm; control 13.9 ± 1.09; p = 0.033", "experimental": "The cells were seeded in 6-well plates at a density of 100 cells/well. After 24 h, fresh medium with 1 μM SIXAC was added. Cells were incubated for 5 days, until colonies were formed. Cells were washed with PBS, stained with […] crystal violet (Sigma-Aldrich, C0075) in absolute ethanol for 20 min and then washed again with PBS and dried for 24 h. Colonies that were bigger than 1 mm were counted using Fiji software ([37]–[40])."}, "[4]": {"system": "CNS-1 inoculated Lewis rats", "assay": "Survival study in CNS-1 GBM rat model", "assay_type": "in vivo", "experimental": "as §1, §2\nThe animals were implanted with osmotic pumps attached to brain infusion tube (Alzet, Cupertino, CA, USA). Implantation was performed 5 days after tumor inoculation. Two different types of osmotic pump were used: in the imaging study the pumps implanted released 1 μl/h for 7 days (model #2001), while in the survival study the pumps released 0.5 μl/h for 14 days (model #2002). The pumps were preloaded with either saline or SIXAC (in indicated concentrations). The pumps were primed in saline bath at 37°C for 24 h as a pre-implantation procedure and the function of each pump was reassured by assessing dripping. The Alzet pump was implanted subcutaneously, a catheter was placed intracranially thus releasing substances directly to the tumor core.\nRats were allocated to three groups. 1. Control group (n = 15) treated with alzet-pumps contain saline. 2. Moderate dose treated group (n = 16) treated with alzet-pump containing SIXAC (2μg/kg/day). 3. High dose treated group (n = 14) treated with alzet-pumps contain SIXAC (20μg/kg/day). Survival was registered daily and the brains were dissected immediately after death determination and were placed in 4% PFA and kept at 4°C. Upon MRI scanning the brains were moved to PBS containing tubes, scanning was performed and ROI were quantified."}}, "note": "“Also recorded” adds a separate entry of the source. Where a SMILES comes first, the peptide text is derived from it. The star is where a group is joined. Tos = Cc1ccc(S(=O)(=O)*)cc1; CH2Cl = ClC*"}
{"smiles": "Cc1ccc(S(=O)(=O)N[C@@H](C)C(=O)N[C@H](C(=O)N[C@@H](CC(C)C)C(=O)N[C@@H](CC(=O)O)C(=O)N2CCC[C@H]2C(=O)N[C@@H](CCCNC(=N)N)C(=O)CCl)[C@@H](C)O)cc1", "note": "[SIXAC] (Tos-ATLDPR-CH2Cl)", "values": [{"measurement": "margin of coagulation-affecting concentration over IC50 for thrombin inhibition", "setting": "[1]; 10^−4M vs. IC50 for thrombin inhibition", "result": "at least 4.5 orders of magnitude"}, {"measurement": "concentration at which coagulation tests (PT, aPTT, TT) are affected", "setting": "[1]; human plasma exposed 10 min, affected only at this concentration, average of 5 measures", "result": "10^−4 M"}, {"measurement": "effect on PT, aPTT and TT (in words)", "setting": "[1]; human plasma exposed 10 min, concentrations equivalent to those used to treat animals, average of 5 measures", "result": "no clinical significant effects; also recorded: The effect was minimal for the therapeutic dosages used in the experiment"}, {"measurement": "tumor enhancement means of ratios, moderate dose vs. low dose and saline (in words)", "setting": "[2]; 2μg/kg/day vs. 0.2μg/kg/day and saline", "result": "non-significant reduction in tumor enhancement means of ratios"}, {"measurement": "edema means of ratios, moderate dose vs. low dose and saline (in words)", "setting": "[2]; 2μg/kg/day vs. 0.2μg/kg/day and saline, p < 0.05", "result": "Significant reduction in edema means of ratios"}, {"measurement": "edema volume ratio (2nd/1st MRI, T2)", "setting": "[2]; 2μg/kg/day, intracranial Alzet pump, 7 days, day 12/day 5, n = 9, control 8.8 ± 1.9, p < 0.04 (t-test)", "result": "4.9 ± 1"}, {"measurement": "tumor volume ratio (2nd/1st MRI, enhancing lesions, T1)", "setting": "[2]; 2μg/kg/day, intracranial Alzet pump, 7 days, day 12/day 5, n = 9, control 12.2 ± 2.4, p = 0.16 (t-test)", "result": "9.8 ± 1.2"}, {"measurement": "number of formed colonies", "setting": "[3]", "result": "10.5 ± 1.06"}, {"measurement": "survival, combined SIXAC groups relative to controls (in words)", "setting": "[4]; 2μg/kg/day and 20μg/kg/day combined", "result": "robust effect of treatment"}, {"measurement": "survival rate vs. saline, moderate dose (in words)", "setting": "[4]; 2μg/kg/day, log-rank test, one tailed p = 0.01", "result": "significantly prolonged in comparison to the saline treated group"}, {"measurement": "median survival, high dose", "setting": "[4]; 20μg/kg/day, intracranial Alzet pump, 14 days, n = 14, control 16 days, log-rank one tailed p < 0.05", "result": 17, "unit": "days"}, {"measurement": "survival rate vs. saline, high dose (in words)", "setting": "[4]; 20μg/kg/day, log-rank test, one tailed p < 0.05", "result": "less pronounced effect for the high dose group"}, {"measurement": "survival, trend over three groups (in words)", "setting": "[4]; saline, 2μg/kg/day, 20μg/kg/day, log-rank test for trend p = 0.030", "result": "significant trend of prolonged survival"}]}
